Several values for one entry are separate records, joined by “and”; a condition that tells them apart may be missing. Equal values may be shown once.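 A five-concentration, 48-hour dose response in 96-well plates underlies each endpoint, interpolated linearly between surrounding concentrations. The concentration for 50% growth inhibition is given as GI50. TGI: concentration producing complete growth inhibition.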 Residues, ends and D or L forms follow the SMILES beside them. *: point of attachment. Cbz = O=C(OCc1ccccc1)*
How the values were obtained:
Test in all cases: NCI-60 cell line screen, 48 h
NCI/ADR-RES ovarian = system: NCI/ADR-RES ovarian
KM12 colon = system: KM12 colon
SK-MEL-28 melanoma = system: SK-MEL-28 melanoma
EKVX NSCLC = system: EKVX NSCLC
MDA-MB-231 breast = system: MDA-MB-231 breast
OVCAR-4 ovarian = system: OVCAR-4 ovarian
SK-MEL-5 melanoma = system: SK-MEL-5 melanoma
SK-OV-3 ovarian = system: SK-OV-3 ovarian
U251 CNS = system: U251 CNS
SF-539 CNS = system: SF-539 CNS

Compound | GI50 (NCI/ADR-RES ovarian) | TGI (NCI/ADR-RES ovarian) [µM] | GI50 (KM12 colon) | TGI (KM12 colon) | GI50 (SK-MEL-28 melanoma) | TGI (SK-MEL-28 melanoma) [µM] | GI50 (EKVX NSCLC) | TGI (EKVX NSCLC) [µM] | GI50 (MDA-MB-231 breast) | TGI (MDA-MB-231 breast) [µM] | GI50 (OVCAR-4 ovarian) | TGI (OVCAR-4 ovarian) [µM] | GI50 (SK-MEL-5 melanoma) | TGI (SK-MEL-5 melanoma) | GI50 (SK-OV-3 ovarian) | TGI (SK-OV-3 ovarian) [µM] | GI50 (U251 CNS) | TGI (U251 CNS) [µM] | GI50 (SF-539 CNS) | TGI (SF-539 CNS)
Nc1nn(C(=O)Nc2c(F)cccc2F)c2ccccc12 | 56.5 µM | > 100 | 86.2 µM | > 100 µM | 56.3 µM | > 100 | 83.9 µM | > 100 | 98.7 µM | > 100 | 57.8 µM | > 100 | 39.7 µM | > 100 µM | > 100 µM | > 100 | 96.1 µM | > 100 | 31.4 µM | > 100 µM
CCCN(CCC)c1ccc(C=O)c(C)c1 | 36.1 µM | > 100 | 44.7 µM | > 100 µM | 68.2 µM | > 100 | 24.2 µM | > 100 | 41.3 µM | > 100 | 21.5 µM | > 100 | 21.2 µM | > 61.9 µM | > 100 µM | > 100 | 38.5 µM | > 100 | > 70.5 µM | > 100 µM
COc1ccc(-c2cn(-c3cc(OC)c(OC)c(OC)c3)c(=O)[nH]2)cc1OC | > 100 µM | > 100 | > 100 µM | > 100 µM | > 100 µM | > 100 | > 100 µM | > 100 | > 100 µM | > 100 | > 100 µM | > 100 | > 100 µM | > 100 µM | > 100 µM | > 100 | > 100 µM | > 100 | > 100 µM | > 100 µM
CCNCCNc1cc(-c2ccc(C(F)(F)F)cc2)c(C#N)c2nc3cc(Cl)c(Cl)cc3n12 | 1.49 µM | 3.33 | 1.69 µM | 3.2 µM | 1.4 µM | 2.89 | 1.59 µM | 3.13 | 1.51 µM | 3.1 | 1.41 µM | 3.14 | 1.67 µM | 3.04 µM | 2.01 µM | 3.45 | 1.67 µM | 3.08 | 1.74 µM | 3.23 µM
O=[N+]([O-])c1oc2ccc3ccccc3c2c1CCO |  | 30.1 |  | 31.5 µM |  | 3.27 |  | 2.09 |  | 59.3 |  | 17.3 |  | 1.98 µM |  | 5.1 |  | 56.9 |  | 13.4 µM
Cc1ccccc1C(C(=O)NC1CCCCC1)N(C(=O)CNc1ccc(C#N)cc1)c1cccc(F)c1 (configuration not stated) | 26.2 µM | > 100 | > 100 µM | > 100 µM | 32.4 µM | > 100 | 42.5 µM | > 100 | 12.4 µM | 70.7 | 9.34 µM | > 71.6 | > 71.2 µM | > 100 µM | 12.9 µM | 52.8 | 5.28 µM | > 100 | 16.2 µM | > 59.7 µM
Cc1[nH]nc2ncc(C(=O)N3CCC[C@H]3c3ccc(Cl)cc3)cc12 | > 100 µM | > 100 | 51.6 µM | > 100 µM | > 100 µM | > 100 | 79.8 µM | > 100 | > 100 µM | > 100 | 96.6 µM | > 100 | 31 µM | > 100 µM | > 100 µM | > 100 | > 100 µM | > 100 | 44.4 µM | > 100 µM
COc1ccc2c(c1)C(c1cc(OC)c3c(c1)OCO3)C1=C(COC1=O)N2 (configuration not stated) | 0.292 µM |  | 0.227 µM | 3.25 µM | 0.36 µM | > 100 | 3.44 µM | > 100 | 0.654 µM | > 39.8 | 1.28 µM | > 100 | 0.262 µM | 1.9 µM | 0.305 µM | 7.36 | 0.419 µM | > 47.9 | 0.318 µM | 
CC1(C)CCC(C)(C)c2cc(NC(=O)c3ccc(C(=O)O)cc3)ccc21 |  | > 86.1 |  | 59.5 µM |  | > 82.2 |  | > 100 |  | > 90.5 |  | > 100 |  | > 93.2 µM |  | > 100 |  | > 62.5 |  | > 51 µM
CC1Cc2ccccc2N1C(=O)Cc1nc(N2CCOCC2)cc(=O)[nH]1 (configuration not stated) | 64.5 µM and > 88.6 µM | > 100 | 20.2 µM and 47.6 µM | 55.1 µM and > 100 µM | 5.13 µM and 18.5 µM | > 100 | 7.06 µM and 17.1 µM | > 100 | 26.4 µM and 31.3 µM | > 100 | 28.1 µM and 31.4 µM | > 100 | 13.4 µM and 34.5 µM | 34.1 µM and > 100 µM | 4.9 µM and 13.3 µM | > 100 | 21.8 µM and 45.9 µM | > 100 | 8.79 µM and 22.4 µM | > 100 µM
O=c1oc2ccc(Br)cc2c(=O)n1-c1ccc(Cl)cc1F | 1.41 µM | 6.95 | 2.03 µM | 4.87 µM | 0.522 µM | 3.03 | 1.45 µM | 7.81 | 0.897 µM | 5.99 | 0.887 µM | 28.1 | 0.323 µM | 1.08 µM | 0.672 µM | 4.48 | 1.26 µM | > 39.2 | 0.854 µM | 6.4 µM
CNC(=O)c1cccc(C#Cc2cncnc2Nc2ccc(OCc3cccc(F)c3)c(Cl)c2)c1 | 6.94 µM | > 25 | 7.22 µM | > 19.4 µM | 5.82 µM | > 17.7 | 1.22 µM | > 25 | 5.95 µM | > 19.5 | 4.23 µM | 12.3 | 5.8 µM | > 20.7 µM | 3.19 µM | 12.7 | 4.47 µM | 10.2 | 4.39 µM | 9.69 µM
COC(=O)[C@@H](C)C[C@H](Cc1ccccc1)NC(=O)c1csc([C@@H](C[C@H](C(C)C)N(C)C(=O)[C@@H](NC(=O)[C@H]2CCCN2C)C2CC2)OC(C)=O)n1 | 0.276 µM and 0.262 µM | > 25 | 0.00222 µM and 0.0025 µM | > 25 µM | 0.0324 µM |  | 0.00833 µM |  | 0.00165 µM and < 0.0025 µM | < 0.0025 |  | > 25 | 0.000329 µM and < 0.0025 µM |  | 0.0083 µM and 0.0025 µM | > 25 | 0.00287 µM and 0.0025 µM | > 25 | 0.00172 µM and < 0.0025 µM | 0.00659 µM and < 0.0025 µM
O=S(=O)(NCCCNc1cc(-c2cn(-c3ccccc3)nc2-c2cccc(O)c2)ccn1)c1ccc(Br)cc1 | 2.33 µM | 8.19 | 1.65 µM | 3.94 µM | 1.97 µM | 4.31 | 2.29 µM | 66.4 | 1.6 µM | 4.25 | 1.86 µM | 8.65 | 1.27 µM | 2.63 µM | 2.76 µM | 9.3 | 1.21 µM | 4.44 | 1.69 µM | 4.01 µM
CN(C)CCOc1ccccc1NC1=C(Cl)C(=O)C(Nc2ccccc2OCCN(C)C)=C(Cl)C1=O | 24.6 µM | > 100 | 20.9 µM | > 100 µM | > 95 µM | > 100 | 5.33 µM | 19.1 | 2.21 µM | 6.61 | 0.473 µM | 0.896 |  | > 23.8 µM | > 47.7 µM | > 83.1 | 10.2 µM | 39.5 | 16.4 µM | > 48.3 µM
Cc1ccc(OCCOCCOCCOCCOCCOc2ccc(C)n(O)c2=S)c(=S)n1O | 0.0478 µM | > 77 | 0.0573 µM | 39.1 µM | 0.23 µM | > 48.7 | 0.0392 µM | > 100 | 0.062 µM | > 100 | 0.0339 µM | 49.5 | 0.0497 µM | 2.89 µM | 0.0583 µM | > 48 | 0.0633 µM | > 100 | 0.0606 µM | 15.1 µM
CN(C)CCS(=O)(=O)Nc1cc(-c2ccc3ncc(C#N)c(Nc4ccc(F)c(Cl)c4)c3c2)cnc1Cl | 2.11 µM | > 29.3 |  |  | 0.176 µM | 1.28 | 0.23 µM | 1.47 | 0.185 µM | 0.629 | 0.382 µM | 10.3 | 0.118 µM | 0.244 µM | 0.299 µM | 1.79 | 0.15 µM | 0.746 | 0.212 µM | 1.17 µM
Nc1ncn([C@H]2C[C@H](OP(=O)(O)OC[C@H]3O[C@@H](n4cnc5c(=O)[nH]c(N)nc54)C[C@@H]3O)[C@@H](CO)O2)c(=O)n1 | > 100 µM | > 100 |  |  | > 100 µM | > 100 | > 100 µM | > 100 | > 100 µM | > 100 | > 100 µM | > 100 | > 100 µM | > 100 µM | > 100 µM | > 100 | > 100 µM | > 100 | > 100 µM | > 100 µM
CC(C)C[C@@H](C=O)NC(=O)[C@H](CC(C)C)NC(=O)[C@H](CC(C)C)NC(=O)OCc1ccccc1 (Cbz-Leu-Leu-Leu-aldehyde) | 3.26 µM | > 100 | 0.281 µM | 0.751 µM | 0.419 µM | 11.6 | 0.682 µM | > 100 | 0.328 µM | 1.21 |  |  | 0.349 µM | 1.08 µM | 0.614 µM | 5.34 | 0.332 µM | 1.07 | 0.256 µM | 0.703 µM

— PubChem BioAssay (NCI)
